Counter-ions that a name gives are not always drawn.
How the values were obtained:
[1] = Hygroscopicity; type: physicochemical
[2] = N-1 versus N-2 crystalline dihydrochloride salts; cited from earlier work

Row | Structure (SMILES) | hygroscopicity [1] | thermodynamic stability among polymorphs [2]
1 | COC(=O)N[C@H](C(=O)N1CCC[C@H]1c1ncc(-c2ccc(-c3ccc(-c4cnc([C@@H]5CCCN5C(=O)[C@@H](NC(=O)OC)C(C)C)[nH]4)cc3)cc2)[nH]1)C(C)C [Form A, methyl((1 S)-1-(((2S)-2-(5-(4′-(2-((2S)-1-((2S)-2-((methoxycarbonyl)amino)-3-methylbutanoyl)-2-pyrrolidinyl)-1H-imidazol-5-yl)-4-biphenylyl)-1H-imidazol-2-yl)-1-pyrrolidinyl)carbonyl)-2-methylpropyl)carbamate] | substantially non-hygroscopic | –
2 | COC(=O)N[C@H](C(=O)N1CCC[C@H]1c1nc(-c2ccc(-c3ccc(-c4c[nH]c([C@@H]5CCCN5C(=O)[C@@H](NC(=O)OC)C(C)C)n4)cc3)cc2)c[nH]1)C(C)C [Form N-2, methyl((1S)-1-(((2S)-2-(5-(4′-(2-((2S)-1-((2S)-2-((methoxycarbonyl)amino)-3-methylbutanoyl)-2-pyrrolidinyl)-1H-imidazol-5-yl)-4-biphenylyl)-1H-imidazol-2-yl)-1-pyrrolidinyl)carbonyl)-2-methylpropyl) carbamate dihydrochloride] | – | thermodynamically most stable polymorph

From patent publication US10300044B2, “Polymorphic forms of methyl((1S)-1-(((2S)-2-(5-(4′-(2-((2S)-1-((2S)-2-((methoxycarbonyl)amino)-3-methylbutanoyl)-2-pyrrolidinyl)-1H-imidazol-5-yl)-4-biphenylyl)-1H-imidazol-2-yl)-1-pyrrolidinyl)carbonyl)-2-methylpropyl)carbamate and salts thereof” (Cipla Limited, priority 2014, dated 2019)
